Data: patent publication US20230323373A1, “SPRAYABLE CELL-PENETRATING PEPTIDES FOR SUBSTANCE DELIVERY IN PLANTS” (BASF Plant Science Company GmbH, priority 2020, published 2023)
Square brackets hold non-standard residues; d marks the D form. Ends that are not written are not given here.

Legend:
Arabidopsis leaf = experiment: Translocation of sprayed TAMRA-CPPs into Arabidopsis leaf cells (CLSM fluorescence); type: in vivo, Arabidopsis thaliana; settings: for cell penetrating efficiency: epidermal cells, TAMRA-labelled CPP 1 mg/L in water, compared with KH9 and R9
Description: Cell-penetrating peptides (CPPs), also called protein transduction domains, are short peptides that facilitate the transport of cargo molecules through membranes to gain access to the cells. In many cases, CPPs are coupled to cargo molecules through covalent conjugation, forming CPP-cargo complexes. To date, DNA, RNA, nanomaterials and proteins such as antibodies were reported as cargo molecules. Most studies of the complex of CPPs and protein have contributed to the applications in mammalian cells, whereas only very limited studies have focused on plant cells. […] The plant cells are mainly containing cellulose, hemicellulose and pectin. […] BP100 (KKLFKKILKYL—SEQ ID NO: 7) is an amphiphilic peptide and has CPP function. KH9 (KHKHKHKHKHKHKHKHKH—SEQ ID NO: 10), R9 (RRRRRRRRR SEQ ID NO: 8), and D-R9 (rrrrrrrrr, D-form of R9 - SEQ ID NO: 9) are peptides containing both CPP and cationic biomolecule binding functions. BP100(KH)9 ([…]—SEQ ID NO: 11) and BP100CH7 ([…]—SEQ ID NO: 12) are fusion peptides containing CPP and cationic sequences which are designed as stimulus-response peptides and could release the cargo molecules (peptides, protein, RNA, DNA) into the cytoplasm. KAibA(KH)9, K-alpha-aminoisobutyric acid (AibA)-AKHKHKHKHKHKHKHKHKH, and KAibA(D-R9), K-alpha-aminoisobutyric acid (AibA)-Arrrrrrrrr are synthetic peptides and containing both CPP and cationic biomolecule binding functions. KAibA (U.S. Ser. No. 16/832,749) was chemoenzymatically synthesized using the polymerization reaction (ACS Biomater. Sci. Eng. 2020, 6, 6, 3287-3298). TAMRA-CPPs are CPPs that labeled by fluorescent molecule 5-carboxytetramethylrhodamine (TAMRA) at the C-terminal end and were used for optimization of various conditions. For the labelling of CPP with TAMRA, the amino acids in Boc-CPPs were deprotected using tri-fluoroacetic acid (TFA). A solution of tetramethylrhodamine-5-isothiocyanate in dimethyl sulfoxide (DMSO) was added to CPP solutions and kept stirring at 25° C. for 14 h. The solution was centrifuged at maximum speed at 4° C. for 60 minutes and the precipitate was washed with Milli-Q water. After lyophilizing, a pink solid was obtained. Dried precipitate of TAM RA-CPP was re-suspended with Milli-q and the TAMRA-CPP solution was kept at 1.0 mg/mL concentration in −80° C. Plasmid DNA that contains expression cassette of reporter gene such as GUS (SEQ ID NO: 1), GFP (SEQ ID NO: 2), DsRed (SEQ ID NO: 3), and Renilla luciferase (Rluc—SEQ ID NO: 4) was used to detect successful delivery into plant cells. […]
Each TAMRA-CPP was adjusted as concentration at 1 mg/L in water. […] Leaf surface was washed three times with water after 30, 90 and 150 min post spraying, and the intensity of fluorescence was measured by CLSM imaging analysis (FIG. 2A). […]

soybean leaves = experiment: Translocation of sprayed TAMRA-CPPs into soybean leaves (fluorescence imaging); type: in vivo, Glycine max; settings: for cell penetrating efficiency: soybean leaves, in general
Method: Seeds of soybean (Glycine max) cultivars Enrei, William-82, and Peking, were germinated between germination papers that has been moistened with tap water. Then the seeds with papers were placed in a plastic bag and incubated in a growth chamber under 18 hours light/6 hours dark at 26° C. for three days. One and a quarter tea spoon of Multicoat 4 was mixed with 2 L of autoclaved sand, which was then moistened with tap water. Three days old soybean seedlings were then transplanted into containers filled with moist sand mix and incubated in the same growth chamber. Leaves from 5 weeks old plants were used for experiments.
Soybean leaves are different in both architecture and leaf chemical components. We further examined the translocation efficiency of highly efficient native CPP sequences in soybean leaves. Leaves from 5 weeks old plants were used for the experiment. Solutions containing 1.0 mg/mL of natural TAMRA-CPP; TAMRA-BP100, TAMRA-KH9, TAMRA-R9, and TAMRA-D-R9 were sprayed on soybean leaves of 3 different cultivars (Enrei, Peking, and William-82) and incubated for 30 min, 90 min, and 150 min (FIG. 3A). The fluorescence imaging and image analysis were conducted to determine the translocation efficiency of these CPPs to plant leaves. […] Different soybean cultivars responded differently to the translocation of CPPs to plant cells.
We tried to determine the efficiency of artificial CPPs containing Aib to soybean leaves using spraying. KAibA, KAibK, and KAibG were synthesized and labelled with TAMRA as described in Example 1. The solutions containing 1 mg/mL of these artificial TAMRA-CPPs were sprayed to fully expanded leaves of 5-weeks old soybean cultivar Enrei and the fluorescence imaging was carried out at 30 min, 90 min, and 150 min after spraying. […] However, the average fluorescent intensity in TAMRA-KAibA-treated soybean leaves was lower than that previously achieved by TAMRA-D-R9 (FIG. 3B and C).

## KKLFKKILKYL (BP100)
Arabidopsis leaf
  cell penetrating efficiency: higher cell penetrating efficiency
Soybean leaves
  cell penetrating efficiency: higher cell penetrating efficiency

## rrrrrrrrr ([dR][dR][dR][dR][dR][dR][dR][dR][dR]) [D-R9]
Arabidopsis leaf; Arabidopsis leaf, summary
  depth of penetration and persistence in tissue: able to penetrate deep inside of the tissue and stay longer without degradation
Arabidopsis leaf
  cell penetrating efficiency: higher cell penetrating efficiency
Arabidopsis leaf; mesophyll cells
  penetrating efficiency: highest penetrating efficiency
Soybean leaves; cultivar Peking
  cell penetrating effect: most efficient cell penetrating effect
Soybean leaves
  cell penetrating efficiency: higher cell penetrating efficiency
